Read-outs that look alike come from different tables or passages of the source.
Columns and labels:
[1] = pure lipid; cited from earlier work
HT29 = assay: In vitro cytotoxicity, HT29; format: cell-based, human
Experimental: A number of commercially available and privately-acquired tumor cell lines were initially surveyed for their sensitivity to various platinum agents, including oxaliplatin. […] The cell lines were also surveyed for sensitivity to 5FU.
Two studies of the novel liposome formulation containing oxaliplatin were conducted in this tumor model.

[2] = system: human colon tumor cell lines; assay: In vitro cytotoxicity survey, panel of human colon tumor cell lines; format: cell-based; conditions: HT-29, all cell lines tested except HT29, 72 h
Experimental: (§1) A number of commercially available and privately-acquired tumor cell lines were initially surveyed for their sensitivity to various platinum agents, including oxaliplatin. […] The cell lines were also surveyed for sensitivity to 5FU. […] Additionally, literature survey was conducted in search of in vitro-generated oxaliplatin-resistant colorectal cell lines to potentially include pre-clinical pharmacology studies in an effort to show improved sensitivity of these cells to a liposomal vs. free oxaliplatin treatment. From this survey, […] other oxaliplatin-resistant colorectal tumor lines were identified; HT29 (Plascencia et al., 2006; Yang et al., 2006), and DLD-1 (Kashiwagi et al., 2011).

HCT-116 cells = assay: In vitro cytotoxicity survey, HCT-116; format: cell-based, human; conditions: 72 h
Experimental: as §1

[3] = Drug tolerance in non-tumor bearing immunodeficient mice; format: in vivo
Experimental: (§2) Prior to initiation of this study, oxaliplatin was evaluated for drug tolerance in non-tumor bearing immunodeficient mice.

KB xenograft tumors = assay: Single-dose efficacy in mice bearing KB xenografts; format: in vivo, nude mice; conditions: 15 mg/kg
Text: One-way ANOVA followed by Neuman-Keuls post hoc test.

[4] = system: KB (epidermoid oral carcinoma human tumor) cells; assay: In vitro cytotoxicity, KB cells
Experimental: as §2

## CCCCCCCC/C=C\CCCCCCCC(=O)O[C@H](COC(=O)CCCCCCCCCCCCCCC)COP(=O)([O-])OCC[N+](C)(C)C [POPC, 1-palmitoyl-2-oleoyl-sn-glycero-3-phosphocholine]
[1]
  gel-liquid crystalline thermal transition temperature: around −2 °C

## O=c1[nH]cc(F)c(=O)[nH]1 [Sample 5FU, 5-fluorouracil]
HT29; Homo sapiens, HT-29, HT29, 72 h
  IC50: > 50 µM
[2]
  IC50: 7 to 10 µM

## O=C1[O][Pt]2([NH][C@@H]3CCCC[C@H]3[NH]2)[O]C1=O [oxaliplatin, [(1R,2R)-cyclohexane-1,2-diamine](ethanedioato-O,O′)platinum(II)]
HCT-116 cells
  IC50: 0.4 µM
HT29; HT29 and several other cell lines, 72 h
  IC50: 5 to 10 µM
HT29; HT29 cell line used in the present studies
  IC50: 5.4 µM
[3]; doses above 15 mg/kg (i.e., 20 mg/kg)
  drug tolerance (in words): dehydration and unacceptable gross body weight losses
[3]; mice
  maximum tolerated dose (MTD): 15 mg/kg
KB xenograft tumors
  tumor growth and survival compared to saline control (in words): did not significantly inhibit tumor growth or increase survival
KB xenograft tumors; KB xenografts
  Median Survival: 25.5
  TGI: 0%
[4]; KB cell-line, 72 h
  IC50: 5.4 µM
[4]; KB cells, cytotoxicity testing prior to injection
  IC50: 5.3 µM

## N.N.[Cl][Pt][Cl] [cisplatin]
[4]; read-out: sensitivity (IC50), KB cell-line
  IC50: 4 µM
